Assay results reported in PubChem BioAssay AID248 (DTP/NCI, 2004).
Toxic doses and inconclusive results are not listed. Cut-off read from the data, not from the text of the source: active = T/C of 150% or more; inactive = T/C below 125%.

Test system: L1210 leukemia ip in BDF1 mice, survival T/C
Experiment: NCI In Vivo Anticancer Drug Screen. Data for tumor model L1210 Leukemia (intraperitoneal) in B6D2F1 (BDF1) mice
Conditions: endpoint: mean survival time, higher = longer survival
Summary of the method: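 Transplanted-tumor mice were given test agent; controls received vehicle only. Survival readings from the two groups were divided (treated over control).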

[1] = dose: 100.0 mg/kg/injection, schedule: Q04DX003 (ip), vehicle: Klucel (hydroxypropylcellulose) (HPC)
[2] = dose: 200.0 mg/kg/injection, schedule: Q04DX003 (ip), vehicle: Klucel (hydroxypropylcellulose) (HPC)
[3] = dose: 400.0 mg/kg/injection, schedule: Q04DX003 (ip), vehicle: Klucel (hydroxypropylcellulose) (HPC)
[4] = dose: 100.0 mg/kg/injection, schedule: Q01DX009 (ip), vehicle: Klucel (hydroxypropylcellulose) (HPC)
[5] = dose: 200.0 mg/kg/injection, schedule: Q01DX009 (ip), vehicle: Klucel (hydroxypropylcellulose) (HPC)
[6] = dose: 400.0 mg/kg/injection, schedule: Q01DX009 (ip), vehicle: Klucel (hydroxypropylcellulose) (HPC)

Measured: T/C

c1ccc(C2C(c3ccccc3)N2c2ccccc2)cc1 (stereo not drawn)
inactive: dose: 50.0 mg/kg/injection, schedule: Q01DX001 (ip), vehicle: carboxymethylcellulose (CMC) 105 % of control | dose: 100.0 mg/kg/injection, schedule: Q01DX001 (ip), vehicle: carboxymethylcellulose (CMC) 113 % of control | [1] 92 % of control | dose: 100.0 mg/kg/injection, schedule: Q04DX003 (ip), vehicle: saline with Tween-80 97 % of control | dose: 200.0 mg/kg/injection, schedule: Q01DX001 (ip), vehicle: carboxymethylcellulose (CMC) 113 % of control | [2] 94 % of control | dose: 200.0 mg/kg/injection, schedule: Q04DX003 (ip), vehicle: saline with Tween-80 90 % of control | dose: 400.0 mg/kg/injection, schedule: Q01DX001 (ip), vehicle: carboxymethylcellulose (CMC) 103 % of control | [3] 92 % of control | dose: 400.0 mg/kg/injection, schedule: Q04DX003 (ip), vehicle: saline with Tween-80 87 % of control

COc1ccc2ncccc2c1
inactive: dose: 100.0 mg/kg/injection, schedule: Q04DX002 (ip), vehicle: saline 111 % of control | dose: 200.0 mg/kg/injection, schedule: Q04DX002 (ip), vehicle: saline 101 % of control | dose: 400.0 mg/kg/injection, schedule: Q04DX002 (ip), vehicle: saline 104 % of control

CCCCc1ccc(Nc2cc(=O)[nH]c(=O)[nH]2)cc1
inactive: dose: 25.0 mg/kg/injection, schedule: Q01DX001 (ip), vehicle: gum acacia 87 % of control | dose: 50.0 mg/kg/injection, schedule: Q01DX001 (ip), vehicle: gum acacia 87 % of control | dose: 200.0 mg/kg/injection, schedule: Q01DX001 (ip), vehicle: gum acacia 88 % of control | dose: 400.0 mg/kg/injection, schedule: Q01DX001 (ip), vehicle: gum acacia 88 % of control

CCCCCCCCCC(=O)CC
inactive: [4] 104 % of control | [1] 110 % of control | [5] 96 % of control | [2] 97 % of control | [6] 102 % of control | [3] 93 % of control

NC(N)=NC(N)=Nc1ccc2c(Cl)c(Cl)ccc2c1
inactive: dose: 2.5 mg/kg/injection, schedule: Q01DX009 (ip), vehicle: saline sonified 92 % of control | dose: 5.0 mg/kg/injection, schedule: Q01DX009 (ip), vehicle: saline sonified 101 % of control | dose: 10.0 mg/kg/injection, schedule: Q01DX009 (ip), vehicle: saline sonified 101 % of control | dose: 12.5 mg/kg/injection, schedule: Q04DX003 (ip), vehicle: saline with Tween-80 105 % of control | dose: 25.0 mg/kg/injection, schedule: Q04DX003 (ip), vehicle: saline with Tween-80 114 % of control | dose: 50.0 mg/kg/injection, schedule: Q04DX003 (ip), vehicle: saline with Tween-80 100 % of control | dose: 100.0 mg/kg/injection, schedule: Q04DX003 (ip), vehicle: saline sonified 101 % of control

COC(=O)c1cccc(C(=O)CC(=O)c2ccccc2)c1
inactive: [4] 90 % of control | [5] 95 % of control | [6] 88 % of control
